From US9540345B2, “Antiviral compounds” (priority 2013, dated 2017)
Like-named read-outs stand apart in the source and are kept apart here.

What was measured:
[1] = test system: pseudotyped HCV GT1b particles (HCVpp); experiment: microbe, parasite or virus in culture; format: cell-based, HCV GT1b Con1 strain
[2] = test system: pseudotyped VSV G particles (VSVpp); experiment: microbe, parasite or virus in culture; format: cell-based, vesicular stomatitis virus
[3] = Hepatitis C virus, GT1B, 72 h, read-out: HCVpp GT-1b (EC50, μM)
[4] = Vesicular stomatitis virus, 72 h, read-out: VSVpp (EC50, μM)

| Compound | EC50 [1, 3] [µM] | EC50 [2, 4] [µM] | EC50 ([1]; read-out: HCVpp GT-1b (EC50)) [µM] | EC50 ([2]; read-out: VSVpp (EC50)) [µM] |
| --- | --- | --- | --- | --- |
| Cn1cc(-c2c(Cl)cc(Nc3n[nH]c(N)n3)cc2Cl)c(C(F)(F)F)n1 [Compound 42, N-3-[3,5-Dichloro-4-(1-methyl-3-trifluoromethyl-1H-pyrazol-4-yl)-phenyl]-1H-[1,2,4]triazole-3,5-diamine] | 0.0527 | 2.4 |  |  |
| Nc1nc(Nc2cc(Cl)c(-c3cncc(Cl)c3)c(Cl)c2)n[nH]1 [Compound 43, N-3-[3,5-Dichloro-4-(5-chloro-pyridin-3-yl)-phenyl]-1H-[1,2,4]triazole-3,5-diamine] | 0.771 | 5.3 |  |  |
| COc1cccc(-c2c(Cl)cc(Nc3n[nH]c(N)n3)cc2Cl)n1 [Compound 44, N-3-[3,5-Dichloro-4-(6-methoxy-pyridin-2-yl)-phenyl]-1H-[1,2,4]triazole-3,5-diamine] | 1.16 | 7.8 |  |  |
| N*3*-{3-Chloro-4-[6-(propane-2-sulfonyl)-pyridin-3-yl]-5-trifluoromethyl-phenyl}-1H-[1,2,4]triazole-3,5-diamine [Compound 23] |  |  | 0.179 | 7.5 |
| tert-Butyl 4-(4-(5-amino-1H-1,2,4-triazol-3-ylamino)-2-chloro-6-(trifluoromethyl)phenyl)-5,6-dihydropyridine-1(2H)-carboxylate [Compound 20] |  |  | 0.073 | 13.6 |
